Patent US20240307525A1 (priority 2020, published 2024)

Legend:
Test in all cases: microbe, parasite or virus in culture
Type in all cases: cell-based, SARS-COV-2
rSARS-COV-2-Venus = details: Severe acute respiratory syndrome coronavirus 2, Vero C1008
rSARS-COV-2-Nluc = details: Severe acute respiratory syndrome coronavirus 2, Vero C1008, 48 h
rSARS-COV-2/WT = details: Severe acute respiratory syndrome coronavirus 2, Vero C1008
rSARS-COV-2-mCherry = details: Severe acute respiratory syndrome coronavirus 2, Vero C1008

With CCC(CC)COC(=O)[C@H](C)N[P@](=O)(OC[C@H]1O[C@@](C#N)(c2ccc3c(N)ncnn23)[C@H](O)[C@@H]1O)Oc1ccccc1 [Remdesivir] as the compound, how does the EC50 (rSARS-COV-2-Venus) read?
The EC50 was 1070 nM.

What about the EC50 (rSARS-COV-2-Nluc) of the same compound?
The EC50 was 1790 nM.

And the EC50 (rSARS-COV-2/WT)?
The EC50 was 1510 nM.

What about the EC50 (rSARS-COV-2-mCherry) of the same compound?
Its EC50 is 1780 nM.
